Data: US12059393B2, “Compositions for topical treatment of radiation dermatitis” (Akos Biosciences, Inc, priority 2022, dated 2024)

Test system: 3D in vitro skin model containing epidermal keratinocytes and dermal fibroblasts
Assay: LDH cytotoxicity assay in 3D in vitro skin model
Assay type: cell-based
Conditions: positive control, no UV; defines 100% cytotoxicity
Protocol: A 3D in vitro skin model containing epidermal keratinocytes and dermal fibroblasts was used. Some tissues were irradiated with 200 mJ UVB/cm^2. Test materials were applied topically for 24 hours (after UVB exposure) and an MTT assay was used to check the viability of cells. The following treatment groups were used: • olive oil (no CBD); • CBD in olive oil in concentrations of 30, 60, 120, and 250 mg/mL; • No treatment; and • Triton-X® as positive control.
Cytotoxicity was assessed with a lactate dehydrogenase (LDH) assay using media collected from the wells of the tissues. Increased LDH activity is an indicator of damaged or dead cells.
The results are provided in the following Table A, with the untreated group defining 0% cytotoxicity and Triton-X defining 100% cytotoxicity. Lower cytotoxicity is better. * indicates p≤0.05 and ** indicates p≤0.01 statistical significance after performing unpaired t-test.

Question: Triton-X was tested. Which “Cytotoxicity (%)” value did it give?
Answer: 100%
